# From paper PMC8585690 (Toxicology, 2021)
# Several values for one entry are separate records, joined by “and”; a condition that tells them apart may be missing. Equal entries are not always repeated. Where two headings read alike, the source gives them in different places.
# Columns and labels:
# [1] = cited from earlier work; for estimated clearance: ref Kadam et al. 2013
# [2] = test system: plasma protein; conditions: cited from earlier work; for plasma free fraction, previously reported measurement: ref Sakolish et al. 2021; for Fub, plasma: representative range of literature-reported values, ref see Methods
# [3] = test system: primary human hepatocytes or human iPSC-derived hepatocytes; conditions: as previously reported; ref Sakolish et al. 2021; cited from earlier work
# [4] = Literature-based in vivo clinical clearance, AUC and bioavailability; conditions: for bioavailability: in vivo; for mean oral clearance of available literature values: mean across studies, no further adjustment
# [5] = test system: primary human hepatocytes or human iPSC-derived hepatocytes; assay: Hepatic clearance in monolayer culture; assay type: in vitro ADME; conditions: 2D culture; in most cases primary cells exhibited greater clearance
# [6] = test system: Hepatocyte; conditions: metabolizing enzymes and conjugation pathways; cited from earlier work
# [7] = test system: microphysiological system; conditions: ref Marin et al. (2019); cited from earlier work
# [8] = test system: primary human hepatocytes or human iPSC-derived hepatocytes; conditions: for underprediction of clearance by LAMPS compared to in vivo: Day 1 (24 hr) clearance vs in vivo intrinsic clearance
# [9] = Plasma protein binding / plasma free fraction; assay type: in vitro ADME; conditions: human
smiles,measurement,setting,value
Cc1ccc(C(=O)c2cc(O)c(O)c([N+](=O)[O-])c2)cc1 [Tolcapone],i.v. clearance,[1]; ref Jorga et al. 1998,7.1 L/h
same,oral clearance,[1]; ref Jorga et al. 1998,11.43 L/h
same,unbound fraction,"[2]; no source cited, ref Jorga et al. 1998",< 0.001
same,bound,[2]; ref Jorga et al. 1998,> 99.9%
same,"plasma free fraction, previously reported measurement",[2],0.002
same,"Fub, plasma",[2],<0.001-0.029
same,toxicity indicated by lactate dehydrogenase (LDH) and TNF-alpha release,[3],most toxic
same,CL/F adjusted for oral absorption,"[4]; 11.43*0.68, from ref Jorga et al. 1998",7.8 L/h
same,bioavailability,"[4]; human, oral",62%
same,clearance in primary cells versus iPSC-derived hepatocytes,[5],the opposite was true
same,Hepatocyte metabolism,[6],Conjugation with glucuronic acid
CC(=O)Nc1ccc(O)cc1 [acetaminophen],half-life in the microphysiological system as compared to in vivo,[7],6 fold
Cn1c(=O)c2c(ncn2C)n(C)c1=O [Caffeine],oral clearance,"[1]; human, ref Lelo et al. 1986",2.07 mL/min/kg
same,plasma free fraction,"[2]; equilibrium dialysis, ref Lelo et al. 1986",0.68
same,"plasma free fraction, previously reported measurement",[2],0.515
same,"Plasma protein binding, % free",[2]; summary of Table 1 values,> 50 % free
same,oral clearance converted using 70 kg body weight,"[4]; human, from ref Lelo et al. 1986",8.7 L/h
same,in vitro intrinsic clearance as a function of time,"[8]; 10-day experimental period, all four model systems (2D and 3D, primary and iPSC-derived hepatocytes)",decline in clearance was also observed
same,underprediction of clearance by LAMPS compared to in vivo,[8],< 5 fold
same,Hepatocyte metabolism,[6],"CYPA2, xanthine oxidase, or N-acetyltransferase 2"
Cc1c(C)c2c(c(C)c1O)CCC(C)(COc1ccc(CC3SC(=O)NC3=O)cc1)O2 (stereo not shown) [Troglitazone],AUC,"[1]; oral dose of 400 mg, ref Ott et al. 1998",7.3 µg·h/mL
same,oral clearance,[1]; ref Loi et al. 1997,33.5 L/h
same,oral clearance,"[1]; three values, ref Loi et al. 1999",30 L/h and 36.1 L/h and 29.8 L/h
same,mean unbound fraction,"[2]; by ultrafiltration, non-detects (one-third of subjects) not included, ref Ott et al. 1998",0.026
same,"plasma free fraction, previously reported measurement",[2],0.008
same,"Fub, plasma",[2],0.0009-0.017
same,oral clearance converted to,[4]; from ref Loi et al. 1997,33.5 L/h
same,oral clearance converted to,[4]; from ref Loi et al. 1999,29.8 L/h and 30 L/h and 36 L/h
same,mean oral clearance of available literature values,"[4]; human, oral",36.8 L/h
same,fraction unbound,[9],0.017
same,Hepatocyte metabolism,[6],"CYP3A4, and conjugation with sulfate or glucuronic acid"
CN(CCOc1ccc(CC2SC(=O)NC2=O)cc1)c1ccccn1 (stereo not shown) [Rosiglitazone],oral clearance,"[1]; human, ref Chapelsky et al. 2003",3.07 L/h
same,AUC,"[1]; i.v. dose of 2 mg, ref Cox et al. 2000",0.744 µg·h/mL
same,AUC,"[1]; oral dose of 8 mg, ref Cox et al. 2000","2,900 ng-hr/ml and 2,930 ng-hr/ml"
same,parent compound in feces,"[1]; radioactivity detected in feces, ref Cox et al. 2000",no parent compound was detected
same,free fraction,"[2]; by ultrafiltration, ref Chapelsky et al. 2003",0.0016
same,"plasma free fraction, previously reported measurement",[2],0.0038
same,"Fub, plasma",[2],0.0016-0.036
same,bioavailability,"[4]; human, oral, 8 mg",98%
same,mean oral clearance of available literature values,"[4]; human, oral",2.85 L/h
same,Hepatocyte metabolism,[6],"CYP2C8, CYP2C9, N-demethylation, and conjugation with sulfate or glucuronic acid"
N[C@@H]1[C@H]2CN(c3nc4c(cc3F)c(=O)c(C(=O)O)cn4-c3ccc(F)cc3F)C[C@@H]12 [Trovafloxacin],AUC,"[1]; iv, 200 mg equivalent, ref Vincent et al. 1998",22 µg·h/mL
same,AUC,"[1]; oral, 200 mg equivalent, ref Vincent et al. 1998",32.2 µg·h/mL
same,free fraction in serum,"[2]; by equilibrium dialysis, ref Teng et al. 1995, Teng et al. 1996",0.3 and 0.238
same,toxicity indicated by lactate dehydrogenase (LDH) and TNF-alpha release,[3],most toxic
same,bioavailability,"[4]; human, oral, 200 mg equivalent",> 100%
same,Hepatocyte metabolism,[6],"N-Acetylation, and conjugation with glucuronic acid"
CC(C)(C)c1ccc(C(O)CCCN2CCC(C(O)(c3ccccc3)c3ccccc3)CC2)cc1 (stereo not shown) [Terfenadine],AUC,"[1]; 60 mg dose, ref Bergstrom et al. 1997",0.0246 µg·h/mL
same,AUC,"[1]; 120 mg dose, ref Stern et al. 1998",0.02014 µg·h/mL
same,free fraction,"[2]; by ultrafiltration, ref Awni et al. 1997",0.003
same,"plasma free fraction, previously reported measurement",[2],0.0219
same,"Fub, plasma",[2],0.003-0.022
same,free fraction,"[2]; source cited was a review, ref McTavish et al. 1990",0.03
CCc1ccc(CCOc2ccc(CC3SC(=O)NC3=O)cc2)nc1 (stereo not shown) [Pioglitazone],estimated clearance,"[1]; ""wild type"" individuals",2.12 L/h
same,estimated clearance,[1]; CYP2C8*3 carrier,3.21 L/h
same,oral clearance,"[1]; human, ref Eckland and Danhof 2000",0.633 mL/min/kg and 0.882 mL/min/kg and 0.797 mL/min/kg
same,absorption,[1]; ref Eckland and Danhof 2000,83%
same,daily AUC,"[1]; repeat dose, ref Budde et al. 2003","14,565 ug-hr/l"
same,AUC,"[1]; single dose of 45 mg, ref Budde et al. 2003","17,387 ug-hr/l"
same,plasma free fraction,[2]; ref Eckland and Danhof 2000,< 0.03
same,"plasma free fraction, previously reported measurement",[2],0.0441
same,"Fub, plasma",[2],0.008-0.04
same,mean oral clearance of available literature values,"[4]; human, oral",3.02 L/h
same,mean oral clearance adjusted for absorption,"[4]; human, oral, mean of all available values, adjusted for incomplete absorption",2.51 L/h
same,oral clearance converted using 70 kg body weight,"[4]; human, from ref Eckland and Danhof 2000",2.66 L/h and 3.7 L/h and 3.35 L/h
same,underprediction of clearance by LAMPS compared to in vivo,[8],< 5 fold
same,Hepatocyte metabolism,[6],"CYP2C8, CYP3A4, and conjugation with sulfate or glucuronic acid"
